System: RA patients
Assay: Plasma Lecithin-Cholesterol Acyltransferase (LCAT) activity, Study 4
Format: in vivo, human
Conditions: for LCAT level, 4 weeks CFB: 4 weeks change from baseline
Experimental: Randomized double-blind, placebo-controlled add on study in subjects with active RA who have an inadequate response to MTX monotherapy, in combination with methotrexate, administered for 4 weeks in the treatment of subjects with active rheumatoid arthritis who have an inadequate response to methotrexate alone.
Compound 1 (dosed as a [Compound 1:HCl:3H2O]) capsules administered orally in 30 mg, 75 mg, 150 mg, or 300 mg doses per day for 4 weeks.
LCAT activity was determined using a commercial available assay from Roar Biomedical. In short; incubation media contained 0.5 μL substrate reagent, 4 μL plasma in a final volume of 100 μL assay buffer. Incubations were performed for 1 h at 37° C. in a microtiter plate. Hereafter 200 μL READ reagent was added to the wells and after mixing, 200 μL was transferred to a black fluorescence compatible microplate. The plate was read at 340 nm excitation, 390 nm and 450 nm emission. LCAT activity was expressed as a ratio of the emission at 390 nm and 450 nm. These two wavelengths represent the LCAT substrate hydrolysed and not hydrolysed. An increase in the ratio indicates increased LCAT activity. Catalogue number RB-LCAT, Lot number used 13581392.

Structure (SMILES): O=C(Nc1nc2cccc(-c3ccc(CN4CCS(=O)(=O)CC4)cc3)n2n1)C1CC1 [Compound 1, cyclopropanecarboxylic acid {5-[4-(1,1-dioxo-thiomorpholin-4-ylmethyl)-phenyl]-[1,2,4]triazolo[1,5-a]pyridin-2yl}-amide]
- LCAT level, 4 weeks CFB (30 mg q.d.): 0.4%
- LCAT activity (emission ratio) (30 mg q.d., baseline): 1.9
- LCAT activity (emission ratio) (30 mg q.d., week 4): 2
- LCAT level, 4 weeks CFB (75 mg q.d.): 4.2%
- LCAT activity (emission ratio) (75 mg q.d., baseline): 2
- LCAT activity (emission ratio) (75 mg q.d., week 4): 2.1
- LCAT level, 4 weeks CFB (150 mg q.d.): 2.9%
- LCAT activity (emission ratio) (150 mg q.d., baseline): 1.9
- LCAT activity (emission ratio) (150 mg q.d., week 4): 1.9
- LCAT level, 4 weeks CFB (300 mg q.d.): 4.4%
- LCAT activity (emission ratio) (300 mg q.d., baseline): 2
- LCAT activity (emission ratio) (300 mg q.d., week 4): 2.1

Reference: US10376520B2, “Methods for the treatment of cardiovascular disorders” (Galapagos NV, priority 2015, dated 2019)
